According to patent US20190047966A1, “NOVEL COMPOUND AND PHARMACOLOGICALLY ACCEPTABLE SALT THEREOF” (MEIJI SEIKA PHARMA CO., LTD., priority 2016, published 2019):
Structures can show the parent of a compound that is named as a salt.

What was measured:
[1] = molecular target: T1, human histamine H4 receptor (Homo sapiens, UniProt Q9H3N8); experiment: Evaluation of Human H4 Receptor Affinity ([3H]histamine binding); details: inhibition constant Ki, CHO-K1 membrane preparation, read-out: Evaluation of H4 Receptor Affinity
T1 construct: purchased PerkinElmer Inc; host or cells: CHO-K1
Experimental: Test Example 2: Evaluation of Human H4 Receptor Affinity
Membrane preparation from recombinant CHO-K1 cell expressing the human histamine H4 receptor (PerkinElmer Inc.), radiolabeled ligand 8.2 nM [^3H]histamine (PerkinElmer Inc.), and compounds dissolved in DMSO were reacted at 25° C. for 90 minutes in a buffering solution containing 50 mM tris-hydrochloric acid, pH 7.4, and 1.25 mM EDTA on a 96 well plate, followed by filtration using a GF/B filter (PerkinElmer Inc.) pretreated with 0.3% polyethylenimine. The residue was washed four times with a buffering solution of 50 mM tris-hydrochloric acid, pH 7.4. Thereafter, a scintillation cocktail (MicroScint 20: PerkinElmer Inc.) was added to the GF/B filter, and the radioactivity of each well was measured using a liquid scintillation counter for 96-well (TopCount: PerkinElmer Inc.). The non-specific binding was evaluated in the presence of 1.0 μM histamine. The inhibition constant Ki was calculated from the 50% inhibitory concentration (IC50 value) obtained in each test and the Kd value (5.7 nM) unique to this assay system, according to the Cheng-Prusoff equation.

[2] = molecular target: human histamine H1 receptor (Homo sapiens, UniProt P35367); experiment: Evaluation of Human H1 Receptor Affinity ([3H]pyrilamine binding); design: purchased PerkinElmer Inc; host or cells: CHO-K1; details: inhibition constant Ki, CHO-K1 membrane preparation
Chain of human histamine H1 receptor (P35367 whole entry): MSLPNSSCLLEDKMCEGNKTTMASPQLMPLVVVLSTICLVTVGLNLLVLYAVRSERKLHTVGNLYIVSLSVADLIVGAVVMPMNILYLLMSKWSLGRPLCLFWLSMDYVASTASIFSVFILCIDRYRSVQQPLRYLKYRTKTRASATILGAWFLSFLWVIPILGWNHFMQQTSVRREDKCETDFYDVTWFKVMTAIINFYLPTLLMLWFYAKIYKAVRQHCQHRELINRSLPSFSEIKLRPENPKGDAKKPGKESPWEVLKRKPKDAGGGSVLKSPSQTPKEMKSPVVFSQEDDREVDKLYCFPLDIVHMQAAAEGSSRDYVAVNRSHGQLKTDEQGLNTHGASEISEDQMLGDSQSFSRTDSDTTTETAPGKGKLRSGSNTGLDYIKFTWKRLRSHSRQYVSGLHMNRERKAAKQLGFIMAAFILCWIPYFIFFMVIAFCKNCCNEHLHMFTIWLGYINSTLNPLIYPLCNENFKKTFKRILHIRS
Experimental: Test Example 1: Evaluation of Human H1 Receptor Affinity
Membrane preparation from recombinant CHO-K1 cell expressing the human histamine H1 receptor (PerkinElmer Inc.), radiolabeled ligand 1.2 nM [^3H]pyrilamine (PerkinElmer Inc.), and test compounds dissolved in DMSO were reacted at 25° C. for 3 hours in a buffering solution containing 50 mM tris-hydrochloric acid, pH 7.4, and 5 mM magnesium chloride on a 96 well plate, followed by filtration using a GF/B filter (PerkinElmer Inc.) pretreated with 0.3% polyethylenimine. The residue was washed four times with a buffering solution of 50 mM tris-hydrochloric acid, pH 7.4. Thereafter, a scintillation cocktail (MicroScint 20: PerkinElmer Inc.) was added to the GF/B filter, and the radioactivity of each well was measured using a liquid scintillation counter for 96-well (TopCount: PerkinElmer Inc.). The non-specific binding was evaluated in the presence of 1.0 μM pyrilamine. The inhibition constant Ki was calculated from the 50% inhibitory concentration (IC50 value) obtained in each test and the Kd value (1.1 nM) unique to this assay system, according to the Cheng-Prusoff equation.

SMILES | Ki [1] [nM] | Ki [2] [nM]
Nc1nc2c(c(N3CCN(CCOC4CC4C(=O)O)CC3)n1)CCc1cc(OCc3ccc(Cl)cc3)ccc1-2 (stereo not drawn) [Example 154, 2-(2-(4-(2-amino-8-((4-chlorobenzyl)oxy)-5,6-dihydrobenzo[h]quinazolin-4-yl)piperazin-1-yl)ethoxy)cyclopropane-1-carboxylic acid] | 100 to 500 | < 100
Nc1nc2c(c(N3CCN(CCOCCOCC4(C(=O)O)COC4)CC3)n1)CCc1cc(OCc3ccc(Cl)cc3)ccc1-2 [Example 168, 3-((2-(2-(4-(2-amino-8-((4-chlorobenzyl)oxy)-5,6-dihydrobenzo[h]quinazolin-4-yl)piperazin-1-yl)ethoxy)ethoxy)methyl)oxetane-3-carboxylic acid] | 100 to 500 | < 100
COC(=O)c1cccc(COCCN2CCN(c3nc(N)nc4c3CCc3cc(OCc5ccc(OC(F)(F)F)cc5)ccc3-4)CC2)c1 [16(a), methyl 3-((2-(4-(2-amino-8-((4-(trifluoromethoxy)benzyl)oxy)-5,6-dihydrobenzo[h]quinazolin-4-yl)piperazin-1-yl)ethoxy)methyl)benzoate] | 100 to 500 | < 100
Nc1nc2c(c(N3CCN(CCOC[C@H]4C[C@@H](C(=O)O)O4)CC3)n1)CCc1cc(OCc3ccc(OC(F)(F)F)cc3)ccc1-2 (relative stereo) [Example 176] | 100 to 500 | < 100
CCOC(=O)C1CCC(O)(COCCN2CCN(c3nc(N)nc4c3CCc3cc(OCc5ccc(Cl)cc5)ccc3-4)CC2)CC1 (stereo not drawn) [166(a), ethyl cis- or trans-4-((2-(4-(2-amino-8-((4-chlorobenzyl)oxy)-5,6-dihydrobenzo[h]quinazolin-4-yl)piperazin-1-yl)ethoxy)methyl)-4-hydroxycyclohexane-1-carboxylate] | 100 to 500 | < 100
CCS(=O)(=O)CCCN1CCN(c2nc(N)nc3c2CCc2cc(OCc4ccc(Cl)cc4)ccc2-3)CC1 [Example 114, 8-((4-chlorobenzyl)oxy)-4-(4-(3-(ethylsulfonyl)propyl)piperazin-1-yl)-5,6-dihydrobenzo[h]quinazolin-2-amine] | 100 to 500 | < 100
CN1CCN(c2nc(N)nc3c2CCc2cc(NS(=O)(=O)c4ccc(Cl)nc4)ccc2-3)CC1 [Example 49, N-(2-amino-4-(4-methylpiperazin-1-yl)-5,6-dihydrobenzo[h]quinazolin-8-yl)-6-chloropyridine-3-sulfonamide] | 100 to 500 | 100 to 500
Nc1nc2c(c(N3CCN(CCOc4cccc(CC(=O)O)c4)CC3)n1)CCc1cc(OCc3ccc(Cl)cc3)ccc1-2 [Example 130, 2-(3-(2-(4-(2-amino-8-((4-chlorobenzyl)oxy)-5,6-dihydrobenzo[h]quinazolin-4-yl)piperazin-1-yl)ethoxy)phenyl)acetic acid] | 100 to 500 | < 100
CN1CCN(c2nc(N)nc3c2CCc2cc(NS(=O)(=O)c4ccc(Cl)cc4F)ccc2-3)CC1 [Example 46, N-(2-amino-4-(4-methylpiperazin-1-yl)-5,6-dihydrobenzo[h]quinazolin-8-yl)-4-chloro-2-fluorobenzenesulfonamide] | 100 to 500 | < 100
CC1(C(=O)O)CCC(OCCN2CCN(c3nc(N)nc4c3CCc3cc(OCc5ccc(Cl)cc5)ccc3-4)CC2)CC1 (stereo not drawn) [Example 161, 4-(2-(4-(2-amino-8-((4-chlorobenzyl)oxy)-5,6-dihydrobenzo[h]quinazolin-4-yl)piperazin-1-yl)ethoxy)-1-methylcyclohexane-1-carboxylic acid] | < 100 | < 100
CN1CCN(c2nc(N)nc3c2CCCc2ccc(OCc4ccccc4)cc2-3)CC1 [Example 202, 10-(benzyloxy)-4-(4-methylpiperazin-1-yl)-6,7-dihydro-5H-benzo[6,7]cyclohepta[1,2-d]pyrimidin-2-amine] | < 100 | 100 to 500
CN[C@H]1CCN(c2nc(N)nc3c2CCc2cc(OCc4ccccc4)ccc2-3)C1 [Example 101, (S)-8-(benzyloxy)-4-(3-(methylamino)pyrrolidin-1-yl)-5,6-dihydrobenzo[h]quinazolin-2-amine] | < 100 | 100 to 500
CCOC(=O)[C@]1(C)C[C@@H](OCCN2CCN(c3nc(N)nc4c3CCc3cc(OCc5ccc(Cl)cc5)ccc3-4)CC2)C1 [25(a), ethyl trans-3-(2-(4-(2-amino-8-((4-chlorobenzyl)oxy)-5,6-dihydrobenzo[h]quinazolin-4-yl)piperazin-1-yl)ethoxy)-1-methylcyclobutane-1-carboxylate] | 100 to 500 | < 100
Nc1nc2c(c(N3CCN(CCO[C@H]4C[C@@H](C(=O)O)C4)CC3)n1)CCc1cc(OCc3ccc(OC(F)(F)F)cc3F)ccc1-2 [Example 205, cis-3-(2-(4-(2-amino-8-((2-fluoro-4-(trifluoromethoxy)benzyl)oxy)-5,6-dihydrobenzo[h]quinazolin-4-yl)piperazin-1-yl)ethoxy)cyclobutane-1-carboxylic acid] | < 100 | < 100

Other lines, results leading:

Ki [1] [nM] | Ki [2] [nM] | SMILES
< 100 | < 100 | Nc1nc2c(c(N3CCN(CCO[C@H]4C[C@@H]5[C@H](C4)[C@@]5(F)C(=O)O)CC3)n1)CCc1cc(OCc3ccc(OC(F)(F)F)cc3)ccc1-2 [Example 180, (1R,3r,5S,6s)-3-(2-(4-(2-amino-8-((4-(trifluoromethoxy)benzyl)oxy)-5,6-dihydrobenzo[h]quinazolin-4-yl)piperazin-1-yl)ethoxy)-6-fluorobicyclo[3.1.0]hexane-6-carboxylic acid]
< 100 | < 100 | Nc1nc2c(c(N3CCN(CCOCc4nc(C(=O)O)cs4)CC3)n1)CCc1cc(OCc3ccc(Cl)cc3)ccc1-2 [135(b), 2-((2-(4-(2-amino-8-((4-chlorobenzyl)oxy)-5,6-dihydrobenzo[h]quinazolin-4-yl)piperazin-1-yl)ethoxy)methyl)thiazole-4-carboxylic acid dihydrochloride]
< 100 | < 100 | C[C@]1(C(=O)O)C[C@H](OCCN2CCN(c3nc(N)nc4c3CCc3cc(OCc5ccc(Cl)cc5)ccc3-4)CC2)C1 [25(b), trans-3-(2-(4-(2-amino-8-((4-chlorobenzyl)oxy)-5,6-dihydrobenzo[h]quinazolin-4-yl)piperazin-1-yl)ethoxy)-1-methylcyclobutane-1-carboxylic acid]
< 100 | < 100 | Nc1nc2c(c(N3CCN(CCOCCOCCO)CC3)n1)CCc1cc(OCc3ccc(Cl)cc3)ccc1-2 [Example 9, 2-(2-(2-(4-(2-amino-8-((4-chlorobenzyl)oxy)-5,6-dihydrobenzo[h]quinazolin-4-yl)piperazin-1-yl)ethoxy)ethoxy)ethan-1-ol]
< 100 | < 100 | COC(=O)c1cc(COCCN2CCN(c3nc(N)nc4c3CCc3cc(OCc5ccc(Cl)cc5)ccc3-4)CC2)ccc1F [17(a), methyl 5-((2-(4-(2-amino-8-((4-chlorobenzyl)oxy)-5,6-dihydrobenzo[h]quinazolin-4-yl)piperazin-1-yl)ethoxy)methyl)-2-fluorobenzoate]
< 100 | < 100 | CN1CCN(c2nc(N)nc3c2CCc2ccc(OCc4ccccc4)cc2-3)CC1 [Example 200, 9-(benzyloxy)-4-(4-methylpiperazin-1-yl)-5,6-dihydrobenzo[h]quinazolin-2-amine]
< 100 | < 100 | COC(=O)c1cccc(COCCN2CCN(c3nc(N)nc4c3CCc3cc(OCc5ccc(Cl)cc5)ccc3-4)CC2)n1 [18(a), methyl 6-((2-(4-(2-amino-8-((4-chlorobenzyl)oxy)-5,6-dihydrobenzo[h]quinazolin-4-yl)piperazin-1-yl)ethoxy)methyl)picolinate]
< 100 | < 100 | CN1CCN(c2nc(N)nc3c2CCc2cc(NS(=O)(=O)c4ccc(F)cc4)ccc2-3)CC1 [Example 50, N-(2-amino-4-(4-methylpiperazin-1-yl)-5,6-dihydrobenzo[h]quinazolin-8-yl)-4-fluorobenzenesulfonamide]
< 100 | < 100 | CN1CCN(c2nc(N)nc3c2CCOc2cc(OCc4ccccc4)ccc2-3)CC1 [Example 204, 9-(benzyloxy)-4-(4-methylpiperazin-1-yl)-5,6-dihydrobenzo[2,3]oxepino[4,5-d]pyrimidin-2-amine]
< 100 | < 100 | Nc1nc2c(c(N3CCN(CCO[C@H]4C[C@@H](C(=O)O)C4)CC3)n1)CCc1cc(OCc3ccc(OC(F)(F)F)c(F)c3)ccc1-2 [Example 206, cis-3-(2-(4-(2-amino-8-((3-fluoro-4-(trifluoromethoxy)benzyl)oxy)-5,6-dihydrobenzo[h]quinazolin-4-yl)piperazin-1-yl)ethoxy)cyclobutane-1-carboxylic acid]
